Data: publication PMC4106271 (Journal of Medicinal Chemistry, 2014)

Molecular target: T1, α1β2γ2S GABAA receptors (Homo sapiens, UniProt P14867+P47870)
T1 construct: expressed in transfected cells; host or cells: Xenopus laevis oocytes injected with cRNA (pCMV cDNA templates)
Test: Two-microelectrode voltage clamp, IGABA modulation, α1β2γ2S
Format: cell-based
Details: 100 μM compound, GABA EC3–7, Xenopus laevis oocytes, mean ± SEM
Experimental: Preparation of stage V–VI oocytes from X. laevis and synthesis of capped runoff poly(A) cRNA transcripts from linearized cDNA templates (pCMV vector) was performed as previously described.[49] […] Follicle membranes from isolated oocytes were enzymatically digested with 2 mg/mL collagenase (type 1A, Sigma–Aldrich, Vienna, Austria).
Selected oocytes were injected with 10–50 nL of DEPC-treated water (diethyl pyrocarbonate, Sigma, Vienna, Austria) containing the different GABAA cRNAs at a concentration of approximately 300–3000 pg·nL^–1·subunit^–1.
To ensure expression of the γ2S subunit in the case of α1/2/3/5β2/3γ2S receptors, cRNAs were mixed in a ratio of 1:1:10. […] The amount of cRNAs was determined by means of a NanoDrop ND-1000 (Kisker-Biotech, Steinfurt, Germany).
Oocytes were stored at +18 °C in modified ND96 solution (90 mM NaCl, 1 mM CaCl2, 1 mM KCl, 1 mM MgCl2·6H2O, and 5 mM HEPES [4-(2-hydroxyethyl)-1-piperazineethanesulfonic acid], pH 7.4, all from Sigma–Aldrich, Vienna, Austria).
Chloride currents through GABAA receptors (IGABA) were measured at room temperature (+21 ± 1 °C) by means of a two-microelectrode voltage clamp technique making use of a Turbo TEC-05X amplifier (npi electronic, Tamm, Germany). IGABA were elicited at a holding potential of –70 mV. Data acquisition was carried out by means of an Axon Digidata 1322A interface using pCLAMP v.10 (Molecular Devices, Sunnyvale, CA). The modified ND96 solution was used as bath solution.
GABA and the studied derivatives were applied by means of the ScreeningTool (npi electronic, Tamm, Germany) fast perfusion system as described previously.[50] To elicit IGABA, the chamber was perfused with 120 μL of GABA- or compound-containing solution at a volume rate of 300 μL/s.[34] Care was taken to account for possible slow recovery from increasing levels of desensitization in the presence of high drug concentrations. The duration of washout periods was therefore extended from 1.5 min (<10 μM compounds) to 30 min (≥10 μM compounds). Oocytes with maximal current amplitudes >3 μA were discarded to exclude voltage clamp errors.
Stimulation of chloride currents by modulators of the GABAA receptor was measured at a GABA concentration eliciting between 3% and 7% of the maximal current amplitude (EC3–7). The GABA EC3–7 was determined for each oocyte individually. Enhancement of the chloride current was defined as (IGABA+compd/IGABA) – 1, where IGABA+compd is the current response in the presence of a given compound and IGABA is the control GABA current. IGABA-max reflects the maximal IGABA enhancement. Concentration–response curves were generated and the data were fitted by nonlinear regression analysis using Origin Software (OriginLab Corp.). Data were fitted to the equation 1/(1 + (EC50/[compound])^nH), where nH is the Hill coefficient. […] Statistical significance was calculated by paired Student t-test with a confidence interval of <0.05.

T1 sequence (P14867 28-456): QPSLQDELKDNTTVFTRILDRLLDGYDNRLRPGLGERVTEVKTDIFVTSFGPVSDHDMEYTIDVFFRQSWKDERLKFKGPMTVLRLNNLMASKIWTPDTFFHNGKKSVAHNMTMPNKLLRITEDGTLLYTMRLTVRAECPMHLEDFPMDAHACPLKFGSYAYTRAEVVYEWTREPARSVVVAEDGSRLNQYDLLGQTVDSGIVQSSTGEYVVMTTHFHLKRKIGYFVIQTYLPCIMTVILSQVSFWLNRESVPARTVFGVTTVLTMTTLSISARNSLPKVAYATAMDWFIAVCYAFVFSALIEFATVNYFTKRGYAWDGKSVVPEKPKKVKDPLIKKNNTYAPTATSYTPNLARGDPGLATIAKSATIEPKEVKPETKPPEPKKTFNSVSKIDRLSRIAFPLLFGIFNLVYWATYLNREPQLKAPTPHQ
T1 sequence (P47870 26-512): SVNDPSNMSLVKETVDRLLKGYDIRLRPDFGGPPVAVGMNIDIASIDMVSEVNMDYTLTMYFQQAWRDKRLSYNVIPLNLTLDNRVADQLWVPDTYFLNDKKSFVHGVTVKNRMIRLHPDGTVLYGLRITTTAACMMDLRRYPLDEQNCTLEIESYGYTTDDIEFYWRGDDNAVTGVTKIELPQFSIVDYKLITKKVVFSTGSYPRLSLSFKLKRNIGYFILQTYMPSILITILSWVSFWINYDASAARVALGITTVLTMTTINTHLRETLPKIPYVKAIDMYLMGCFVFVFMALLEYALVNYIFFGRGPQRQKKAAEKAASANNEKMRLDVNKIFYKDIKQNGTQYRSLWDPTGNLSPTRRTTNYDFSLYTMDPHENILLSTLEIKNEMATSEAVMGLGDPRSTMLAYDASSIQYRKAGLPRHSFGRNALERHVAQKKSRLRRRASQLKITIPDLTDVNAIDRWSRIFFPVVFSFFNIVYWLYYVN
T1 sequence (P18507 40-467 isoform P18507-1 partner limits assumed): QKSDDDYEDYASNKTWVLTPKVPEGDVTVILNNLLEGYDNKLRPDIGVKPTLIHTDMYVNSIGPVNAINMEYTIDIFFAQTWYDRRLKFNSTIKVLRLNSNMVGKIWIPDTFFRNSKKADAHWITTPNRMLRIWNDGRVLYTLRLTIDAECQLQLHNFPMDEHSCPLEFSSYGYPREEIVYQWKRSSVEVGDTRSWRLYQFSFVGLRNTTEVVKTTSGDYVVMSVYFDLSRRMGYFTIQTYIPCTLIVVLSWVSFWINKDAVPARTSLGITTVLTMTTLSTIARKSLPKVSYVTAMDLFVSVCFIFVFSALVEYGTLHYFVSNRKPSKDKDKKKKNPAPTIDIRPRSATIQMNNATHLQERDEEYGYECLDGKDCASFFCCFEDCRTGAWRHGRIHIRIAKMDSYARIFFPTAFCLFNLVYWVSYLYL

| Structure (SMILES) | activation at 100 µM | modulation of IGABA (%) |
| --- | --- | --- |
| CSc1ccc(NC(=O)/C=C/C=C/c2ccc3c(c2)OCO3)cc1 [Compound 1] | 0% |  |
| COc1cc(NC(=O)/C=C/C=C/c2ccc3c(c2)OCO3)cc(OC)c1OC [Compound 2] | 10% |  |
| O=C(/C=C/C=C/c1ccc2c(c1)OCO2)Nc1c(F)cc(F)cc1F [Compound 3] | 5 ± 5% |  |
| CN(C)CCNC(=O)/C=C/C=C/c1ccc2c(c1)OCO2 [Compound 4] | -15% |  |
| COc1ccc(CCNC(=O)/C=C/C=C/c2ccc3c(c2)OCO3)cc1OC [Compound 5] | -2% |  |
| O=C(/C=C/C=C/c1ccc2c(c1)OCO2)Nc1cccnc1 [Compound 6] | -7% |  |
| O=C(/C=C/C=C/c1ccc2c(c1)OCO2)Nc1ccc(Cl)cn1 [Compound 7] | 8 ± 7% |  |
| O=C(/C=C/C=C/c1ccc2c(c1)OCO2)NCCCc1ccccc1 [Compound 8] | -8% |  |
| O=C(/C=C/C=C/c1ccc2c(c1)OCO2)Nc1ccccc1O [Compound 9] | 0% |  |
| O=C(/C=C/C=C/c1ccc2c(c1)OCO2)Nc1ccc([N+](=O)[O-])cc1O [Compound 10] | 1 ± 7% |  |
| CCCCNC(=O)/C=C/C=C/c1ccc2c(c1)OCO2 [Compound 11] | 51 ± 11% |  |
| O=C(/C=C/C=C/c1ccc2c(c1)OCO2)NCCC(c1ccccc1)c1ccccc1 [Compound 12] | -6% |  |
| O=C(/C=C/C=C/c1ccc2c(c1)OCO2)NC1CCCC1 [Compound 13] | 33 ± 17% |  |
| O=C(/C=C/C=C/c1ccc2c(c1)OCO2)NCc1ccccc1 [Compound 14] | 0% |  |
| CCCCCCCCCCNC(=O)/C=C/C=C/c1ccc2c(c1)OCO2 [Compound 15] | -1% |  |
| O=C(/C=C/C=C/c1ccc2c(c1)OCO2)NC12CC3CC(CC(C3)C1)C2 [Compound 16] | -6% |  |
| O=C(/C=C/c1ccc2c(c1)OCO2)N1CCCCC1 [Compound 17] | 79 ± 8% |  |
| CC(C)N(C(=O)/C=C/c1ccc2c(c1)OCO2)C(C)C [Compound 18] | 66 ± 30% |  |
| CN(C)C(=O)/C=C/C=C/c1ccc2c(c1)OCO2 [Compound 20] | 61 ± 28% |  |
| CCCCCCN(CCCCCC)C(=O)/C=C/C=C/c1ccc2c(c1)OCO2 [Compound 26] | 0% |  |
| O=C(/C=C/C=C/c1ccc2c(c1)OCO2)N(C1CCCCC1)C1CCCCC1 [Compound 27] | 13 ± 13% |  |
| O=C(/C=C/C=C/c1ccc2c(c1)OCO2)N1CCOCC1 [Compound 29] | 0% |  |
| CN1CCN(C(=O)/C=C/C=C/c2ccc3c(c2)OCO3)CC1 [Compound 31] | -20% |  |
| CCN1CCN(C(=O)/C=C/C=C/c2ccc3c(c2)OCO3)CC1 [Compound 32] | -5% |  |
| O=C(/C=C/C=C/c1ccc2c(c1)OCO2)N1CCCC(O)C1 (centres unmarked) [Compound 36] | 33 ± 9% |  |
| O=C(/C=C/C=C/c1ccc2c(c1)OCO2)N1CCC(O)CC1 [Compound 37] | 26 ± 14% |  |
| O=C(/C=C/C=C/c1ccc2c(c1)OCO2)N1CCN(CCOCCO)CC1 [Compound 40] | 12 ± 8% |  |

| Structure (SMILES) | activation at 100 µM | modulation of IGABA (%) |
| --- | --- | --- |
| COc1ccccc1N1CCN(C(=O)/C=C/C=C/c2ccc3c(c2)OCO3)CC1 [Compound 41] | 5 ± 5% |  |
| O=C(/C=C/C=C/c1ccc2c(c1)OCO2)N1CCN(Cc2ccccc2)CC1 [Compound 42] | 48 ± 12% |  |
| S=C(/C=C/C=C/c1ccc2c(c1)OCO2)N1CCCCC1 [Compound 44] | 17 ± 17% |  |
| C(/C=C/c1ccc2c(c1)OCO2)=C\CN1CCCCC1 [Compound 45] | -16% |  |
| O=C(c1ccc(-c2ccc3c(c2)OCO3)cc1)N1CCCCC1 [Compound 46] | 42% | 42 ± 1 % |
| CCCCN(CCCC)C(=O)c1ccc(-c2ccc3c(c2)OCO3)cc1 [Compound 48] | 49 ± 7% |  |
| CC(C)N(C(=O)c1ccc(-c2ccc3c(c2)OCO3)cc1)C(C)C [Compound 49] | 30 ± 15% |  |
| CCCN(CCC)C(=O)c1cccc(-c2ccc3c(c2)OCO3)c1 [Compound 51, 3-(Benzo[d][1,3]dioxol-5-yl)-N,N-dipropylbenzamide] | 280% | 280 ± 52 % |
| CCCCN(CCCC)C(=O)c1cccc(-c2ccc3c(c2)OCO3)c1 [Compound 52] | 63 ± 12% |  |
| O=C(c1ccccc1-c1ccc2c(c1)OCO2)N1CCCCC1 [Compound 54] | 34 ± 8% |  |
| CCCN(CCC)C(=O)c1ccccc1-c1ccc2c(c1)OCO2 [Compound 55] | 79 ± 24% |  |
| CC(C)N(C(=O)c1ccccc1-c1ccc2c(c1)OCO2)C(C)C [Compound 57] | 15 ± 15% |  |
| O=C(c1ccc(-c2ccc3c(c2)OCO3)s1)N1CCCCC1 [Compound 58] | -5% |  |
| CCCCN(CCCC)C(=O)c1ccc(-c2ccc3c(c2)OCO3)s1 [Compound 60] | 51 ± 21% |  |
| CC(C)N(C(=O)c1ccc(-c2ccc3c(c2)OCO3)s1)C(C)C [Compound 61] | 11 ± 2% |  |
| O=C(c1cccc2c(-c3ccc4c(c3)OCO4)cccc12)N1CCCCC1 [Compound 62, [5-(Benzo[d][1,3]dioxol-5-yl)naphthalen-1-yl](piperidin-1-yl)methanone] | 13 ± 2% |  |
| CCCN(CCC)C(=O)c1cccc2c(-c3ccc4c(c3)OCO4)cccc12 [Compound 63] | 12 ± 4% |  |
| CCCCN(CCCC)C(=O)c1cccc2c(-c3ccc4c(c3)OCO4)cccc12 [Compound 64] | 4 ± 4% |  |
| CCCN(CCC)C(=O)/C=C/c1cccc2cc3c(cc12)OCO3 [Compound 66] | 67 ± 23% |  |
| CCCCN(CCCC)C(=O)/C=C/c1cccc2cc3c(cc12)OCO3 [Compound 67] | 18 ± 9% |  |
| O=C(/C=C/c1ccc2cc3c(cc2c1)OCO3)N1CCCCC1 [Compound 68] | -1% |  |
| CCCN(CCC)C(=O)/C=C/c1ccc2cc3c(cc2c1)OCO3 [Compound 69] | 74 ± 1% |  |
| CCCCN(CCCC)C(=O)/C=C/c1ccc2cc3c(cc2c1)OCO3 [Compound 70] | 32% | 32 ± 12% |
| O=C(c1cccc2cc3c(cc12)OCO3)N1CCCCC1 [Compound 71] | 32 ± 10% |  |
| CC(C)CN(CC(C)C)C(=O)c1cccc2cc3c(cc12)OCO3 [Compound 74] | 60 ± 17% |  |
| O=C(c1ccc2cc3c(cc2c1)OCO3)N1CCCCC1 [Compound 75] | 58 ± 29% |  |

Same assay, conditions: Hill coefficient of concentration–response curve

| Structure (SMILES) | nH |
| --- | --- |
| CC(C)N(C(=O)/C=C/C=C/c1ccc2c(c1)OCO2)C(C)C [Compound 22] | 2.3 ± 0.2 |
| CC1CCN(C(=O)/C=C/C=C/c2ccc3c(c2)OCO3)CC1 [Compound 35] | 1.9 ± 0.3 |
| O=C(/C=C/C=C/c1ccc2c(c1)OCO2)N(CC(F)(F)F)CC(F)(F)F [Compound 43] | 1.6 ± 0.2 |
| CCCN(CCC)C(=O)c1ccc(-c2ccc3c(c2)OCO3)cc1 [Compound 47] | 1.2 ± 0.2 |
| CC(C)N(C(=O)c1cccc(-c2ccc3c(c2)OCO3)c1)C(C)C [Compound 53] | 1.5 ± 0.2 |
| CCCCN(CCCC)C(=O)c1ccccc1-c1ccc2c(c1)OCO2 [Compound 56] | 1.2 ± 0.0 |
| CCCN(CCC)C(=O)c1cccc2cc3c(cc12)OCO3 [Compound 72] | 1.9 ± 0.2 |
| CCCCN(CCCC)C(=O)c1cccc2cc3c(cc12)OCO3 [Compound 73] | 2.7 ± 0.2 |

Same assay, conditions: IGABA enhancement, GABA EC3–7, Xenopus oocytes

| Structure (SMILES) | EC50 |
| --- | --- |
| CC(C)N(C(=O)/C=C/C=C/c1ccc2c(c1)OCO2)C(C)C [Compound 22] | 86.7 ± 13.9 µM |
| CC1CCN(C(=O)/C=C/C=C/c2ccc3c(c2)OCO3)CC1 [Compound 35] | 67.7 ± 11 µM |
| O=C(/C=C/C=C/c1ccc2c(c1)OCO2)N(CC(F)(F)F)CC(F)(F)F [Compound 43] | 23.1 ± 3.3 µM |
| CCCN(CCC)C(=O)c1ccc(-c2ccc3c(c2)OCO3)cc1 [Compound 47] | 70.8 ± 21.1 µM |
| CC(C)N(C(=O)c1cccc(-c2ccc3c(c2)OCO3)c1)C(C)C [Compound 53] | 55.3 ± 17.6 µM |
| CCCCN(CCCC)C(=O)c1ccccc1-c1ccc2c(c1)OCO2 [Compound 56] | 36.8 ± 2 µM |
| CCCN(CCC)C(=O)c1cccc2cc3c(cc12)OCO3 [Compound 72] | 102 ± 11.2 µM |
| CCCCN(CCCC)C(=O)c1cccc2cc3c(cc12)OCO3 [Compound 73] | 31.8 ± 5.3 µM |

Molecular target: T1, α1β2γ2S GABAA receptors
Test: not given
Details: 100 μM; cited from earlier work

| Structure (SMILES) | potentiation of IGABA |
| --- | --- |
| O=C(/C=C/C=C/c1ccc2c(c1)OCO2)N1CCCCC1 [piperine, 1-piperoylpiperidine] | 226% ± 26% |

Same assay, conditions: Hill coefficient; cited from earlier work

| Structure (SMILES) | nH |
| --- | --- |
| O=C(/C=C/C=C/c1ccc2c(c1)OCO2)N1CCCCC1 [piperine, 1-piperoylpiperidine] | 1.5 ± 0.2 |
